Measurements published in patent publication US20190315775A1, “MODIFIED […] AND PHARMACEUTICAL COMPOSITION HAVING SAME AS ACTIVE INGREDIENT” (KEIO UNIVERSITY, priority 2016, published 2019).

Experiments:
[1] = test system: high-risk MM cells (MUM24); experiment: Apoptosis induction, Annexin V/PI flow cytometry; type: cell-based, human; conditions: MUM24, 10 μM, 24, 48 and 72 hours
Description: For observation of apoptosis induction caused by drugs, TC11 and PEG11(E)-TC11, one type of MM cells, MUM24 cells were treated with TC11 and PEG11(E)-TC11, Annexin V/PI staining was performed, and then analysis was conducted using a flow cytometer. More specifically, MUM24 was adjusted at 2.0×10^5 cells/mL, and then 1.95 mL each thereof was seeded to a 6-well plate. From the next day, TC11 and PEG11(E)-TC11 were added in such a manner that the final concentrations were 0, and 10 μM, and then cells were cultured at 37° C. for 24, 48, and 72 hours. Each cell (1.5 ml each) was collected, and then washed twice with Phosphate Buffered Saline (PBS, Sigma-Aldrich). Subsequently, each resultant was suspended again in a solution prepared by adding 5 μL of Annexin V-FITC and 5 μL of Propidium Iodide (PI) to 500 μL of 1×Binding Buffer in Annexin V-FITC Apoptosis Detection Kit (Bio Vision, California, USA), and then left to stand in the dark for 5 minutes. Fluorescence intensity was measured using BD™ LSR II Flow Cytometer (Becton, Dickinson and company, New Jersey, USA). Wavelengths to be measured were excitation wavelength of 488 nm, and fluorescence wavelengths of 530±15 nm for Annexin V-FITC and 610±10 nm for PI.

[2] = test system: HCT116 (human colon cancer cells; p53+/+); experiment: WST-1 proliferation assay (Example 10), HCT116; type: cell-based; conditions: HCT-116, WST-1, 48 hours
Description: (§1) Cancer cells used herein were KMS34 (human myeloma cells), HeLa (human cervical cancer cells), HCT116 (human colon cancer cells; p53+/+), KATOIII (human stomach cancer cells), MDA-MB-231 (human breast cancer cells), HT-29 (human colon adenocarcinoma cells), PANC-1 (human pancreatic cancer cells), and Li-7 (human liver cancer cells). Proliferation assay of various cancer cells was performed by the WST-1 method (Cook, J A. & Mitchell, J B., Anal. Biochem., 179, 1-7, 1984) as follows. One μ1 each of PEG11(E)-TC11 and PEG11(O)-TC11 prepared in advance at target concentrations was added into each well of a 96-well microplate. Medium was added to the wells at 50 μl per well, and then mixed by tapping lightly the plate. Subsequently, KMS34 was prepared at a concentration of 5×10^5 cells/ml, and cells other than KMS34 were prepared at a concentration of 2×10^5 cells/ml. Cells were seeded at 50 μl per well (2.5×10^4 cells, 1×10^4 cells), and then incubated in a CO2 incubator (37° C., 5% CO2) for 48 hours. […] Subsequently, the plate was shaken with a plate reader for 1 minute, and then absorbance was measured at 450 nm. At this time, absorbance was also measured at 595 nm as a reference wavelength. The net absorbance was obtained by subtracting the absorbance at the reference wavelength from the absorbance at 450 nm.

[3] = test system: MDA-MB-231 (human breast cancer cells); experiment: WST-1 proliferation assay (Example 10), MDA-MB-231; type: cell-based; conditions: WST-1, 48 hours
Description: as §1

MUM24 cells = experiment: Cell cycle, DNA content by flow cytometry; type: cell-based, human; conditions: MUM24, 3 μM, 12, 24 and 36 hours
Description: The present inventors have reported that when HeLa cells of a human cervical cancer-derived cell line are treated with TC11, multipolarization and then multinucleation take place (Shiheido, H. et al., PLoS One, 7: e38878, 2012). The present inventors have also reported in the same paper α-tubulin and NPM1 as binding molecules for TC11. Next, intracellular DNA content was measured using flow cytometry in order to examine the effects of TC11 and its derivative, PEG11(E)-TC11 on cell cycle. More specifically, MUM24 was adjusted at 4.0×10^5 cells/mL, 1.95 mL each of MUM24 was seeded to a 6-well plate. From the next day, TC11 and PEG11(E)-TC11 were added in such a manner that the final concentrations were 0 and 3 μM, respectively, and then cells were cultured at 37° C. for 12, 24, and 36 hours. Each cell was collected, and then washed with PBS. 70% EtOH ([…]) was added and then the resultant was left to stand overnight at −30° C. After washing with PBS, […] of citrate-phosphate buffer was added, and then the resultant was left to stand at room temperature for 30 minutes, thereby eluting fragmented DNA. […] Fluorescence intensity was measured using BD FACS Calibur (Trademark) (Becton, Dickinson and company, New Jersey, USA). Wavelengths for measurement were an excitation wavelength of 488 nm, and a fluorescence wavelength of 610±10 nm.

[4] = Stability in mouse blood plasma; type: in vitro ADME
Text: Subsequently, PEG11(E)-TC11 was examined for stability in mouse blood plasma (A) and in medium (B). […] Such degradation is considered to result from a small amount of esterase in FBS (fetal calf serum) contained in the medium.

[5] = test system: Li-7 (human liver cancer cells); experiment: WST-1 proliferation assay (Example 10), Li-7; type: cell-based; conditions: U-7 (head of Table 4), WST-1, 48 hours
Description: as §1

cereblon (CRBN) = target: T1, cereblon (CRBN) (Homo sapiens, UniProt Q96SW2); experiment: Pull-down assay of cereblon with biotinylated drug on streptavidin beads; type: binding; conditions: 30° C., 30 minutes, FIG. 9A
T1 construct: recombinant full-length CRBN prepared by the above method was reacted with the beads; T7 tag (N); FLAG tag (C); made in house; host or cells: 293T cells (pcDNA3.3 vector), RIPA extract purified on Ni Sepharose excel
Description: CRBN was prepared as follows. A T7 tag was added 5′-upstream of, and a FLAG tag and a histidine tag were added 3′-downstream of a full-length CRBN gene. The gene was introduced into a pcDNA3.3 expression vector (Invitrogen), thereby constructing a plasmid DNA. Next, a Kozak sequence was added 5′-upstream of the T7 tag using a KOD-Plus-Mutagenesis Kit (TOYOBO). The plasmid DNA was transfected into 293T cells. After 4 days of culture at 37° C. with 5% CO2, cells were extracted with a RIPA buffer (Thermo), and then the extracted fraction was purified using Ni Sepharose excel (GE Healthcare). Since the purified fraction contained imidazole, TBS (Nacalai Tesque) was subjected to buffer exchange. […] Centrifugation was performed to separate the resultants into a flow-through (F) fraction and a bead (B) fraction. Protein bands corresponding to CRBN were separated by SDS-PAGE, and then detected by Western blot. […] Note that “I” indicates “Input fraction”.

T1 sequence (Q96SW2 whole entry): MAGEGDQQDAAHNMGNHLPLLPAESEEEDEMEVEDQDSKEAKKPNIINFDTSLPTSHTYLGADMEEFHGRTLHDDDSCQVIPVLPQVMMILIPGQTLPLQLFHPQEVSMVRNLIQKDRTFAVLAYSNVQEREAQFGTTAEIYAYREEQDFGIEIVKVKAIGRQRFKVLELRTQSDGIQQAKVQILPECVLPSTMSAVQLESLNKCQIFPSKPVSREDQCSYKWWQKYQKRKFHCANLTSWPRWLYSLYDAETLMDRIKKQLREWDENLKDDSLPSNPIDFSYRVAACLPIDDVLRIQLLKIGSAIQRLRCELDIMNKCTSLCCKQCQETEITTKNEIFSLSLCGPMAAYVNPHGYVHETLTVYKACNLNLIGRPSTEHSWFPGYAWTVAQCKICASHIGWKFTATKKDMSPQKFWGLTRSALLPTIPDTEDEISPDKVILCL

Compound	Apoptosis induction (Annexin V+/PI− and Annexin V+/PI+ fractions) [1]	IC50 [2]	IC50 [3]	Effect on cell cycle (proportion of tetraploid cells) (MUM24 cells)	Stability in mouse blood plasma [4]	IC50 [5]	Binding of CRBN to drug immobilized on beads (pull-down, Western blot) (cereblon (CRBN))
COCCOCCOCCOCCOCCOCCOCCOCCOCCOCCOCCOCCC(=O)OCCOc1cc2c(cc1N)C(=O)N(c1c(C(C)C)cccc1C(C)C)C2=O [PEG11(E)-TC11]	clearly induce apoptosis	9 µM	11 µM	induce cell death by causing G2/M phase arrest	very quickly hydrolyzed by esterase in mouse blood plasma	9.4 µM	–
CC(C)c1cccc(C(C)C)c1N1C(=O)c2ccc(N)cc2C1=O [TC11, 2-(2,6-di-isopropylphenyl)-5-amino-1H-isoindole-1,3-dione, reference compound]	clearly induce apoptosis	–	–	induce cell death by causing G2/M phase arrest	–	–	did not bind
COCCOCCOCCOCCOCCOCCOCCOCCOCCOCCOCCOCCOc1cc2c(cc1N)C(=O)N(c1c(C(C)C)cccc1C(C)C)C2=O [PEG11(O)-TC11]	–	34.5 µM	80 µM	–	–	87 µM	–
